In ChEMBL document CHEMBL4028908, “The Discovery of 3-((4-Chloro-3-methoxyphenyl)amino)-1-((3R,4S)-4-cyanotetrahydro-2H-pyran-3-yl)-1H-pyrazole-4-carboxamide, a Highly Ligand Efficient and Efficacious Janus Kinase 1 Selective Inhibitor with Favorable Pharmacokinetic Properties” (J Med Chem, 2017):

Key:
[1] = target: T1, Tyrosine-protein kinase JAK1 (Homo sapiens, UniProt P23458)
[2] = Intrinsic clearance in human hepatocytes after 120 mins by LC-MS/MS analysis; assay type: ADME, cell-based, Hepatocyte; settings: read-out: CLH
[3] = target: T2, Tyrosine-protein kinase JAK2 (Homo sapiens, UniProt O60674)
T2 sequence (O60674 whole entry): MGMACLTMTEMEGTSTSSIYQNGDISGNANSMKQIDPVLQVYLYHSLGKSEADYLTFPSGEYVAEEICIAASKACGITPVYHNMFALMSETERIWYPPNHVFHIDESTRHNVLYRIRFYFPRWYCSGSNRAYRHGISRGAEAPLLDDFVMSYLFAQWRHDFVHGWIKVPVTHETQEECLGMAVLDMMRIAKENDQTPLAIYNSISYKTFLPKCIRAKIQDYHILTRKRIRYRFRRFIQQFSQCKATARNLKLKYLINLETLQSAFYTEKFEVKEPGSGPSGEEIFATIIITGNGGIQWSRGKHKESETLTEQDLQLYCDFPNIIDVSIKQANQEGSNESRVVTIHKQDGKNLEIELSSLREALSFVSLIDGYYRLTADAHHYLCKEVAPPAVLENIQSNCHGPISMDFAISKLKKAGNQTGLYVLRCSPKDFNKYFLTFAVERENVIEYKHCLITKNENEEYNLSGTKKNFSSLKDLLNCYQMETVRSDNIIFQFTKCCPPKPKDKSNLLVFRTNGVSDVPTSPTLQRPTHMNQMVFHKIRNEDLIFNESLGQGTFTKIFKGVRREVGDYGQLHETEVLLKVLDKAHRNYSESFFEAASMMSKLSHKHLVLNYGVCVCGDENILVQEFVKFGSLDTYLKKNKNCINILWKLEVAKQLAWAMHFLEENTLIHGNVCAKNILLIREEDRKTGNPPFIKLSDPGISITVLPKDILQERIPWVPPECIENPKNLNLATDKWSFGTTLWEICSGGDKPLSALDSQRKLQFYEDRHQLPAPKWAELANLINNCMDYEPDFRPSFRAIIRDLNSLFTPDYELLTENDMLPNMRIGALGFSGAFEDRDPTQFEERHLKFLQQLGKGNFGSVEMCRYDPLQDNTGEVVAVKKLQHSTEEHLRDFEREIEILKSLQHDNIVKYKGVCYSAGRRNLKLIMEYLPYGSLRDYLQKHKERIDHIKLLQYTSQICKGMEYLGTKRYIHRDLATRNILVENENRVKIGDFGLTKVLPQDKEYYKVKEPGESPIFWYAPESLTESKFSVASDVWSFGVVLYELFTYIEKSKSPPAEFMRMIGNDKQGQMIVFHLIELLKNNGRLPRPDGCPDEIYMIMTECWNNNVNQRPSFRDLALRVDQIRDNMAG

[4] = Intrinsic clearance in rat hepatocytes after 120 mins by LC-MS/MS analysis; assay type: ADME, cell-based, Hepatocyte; settings: read-out: CLH
[5] = target: T3, Tyrosine-protein kinase JAK3 (Homo sapiens, UniProt P52333)
T3 sequence (P52333 whole entry): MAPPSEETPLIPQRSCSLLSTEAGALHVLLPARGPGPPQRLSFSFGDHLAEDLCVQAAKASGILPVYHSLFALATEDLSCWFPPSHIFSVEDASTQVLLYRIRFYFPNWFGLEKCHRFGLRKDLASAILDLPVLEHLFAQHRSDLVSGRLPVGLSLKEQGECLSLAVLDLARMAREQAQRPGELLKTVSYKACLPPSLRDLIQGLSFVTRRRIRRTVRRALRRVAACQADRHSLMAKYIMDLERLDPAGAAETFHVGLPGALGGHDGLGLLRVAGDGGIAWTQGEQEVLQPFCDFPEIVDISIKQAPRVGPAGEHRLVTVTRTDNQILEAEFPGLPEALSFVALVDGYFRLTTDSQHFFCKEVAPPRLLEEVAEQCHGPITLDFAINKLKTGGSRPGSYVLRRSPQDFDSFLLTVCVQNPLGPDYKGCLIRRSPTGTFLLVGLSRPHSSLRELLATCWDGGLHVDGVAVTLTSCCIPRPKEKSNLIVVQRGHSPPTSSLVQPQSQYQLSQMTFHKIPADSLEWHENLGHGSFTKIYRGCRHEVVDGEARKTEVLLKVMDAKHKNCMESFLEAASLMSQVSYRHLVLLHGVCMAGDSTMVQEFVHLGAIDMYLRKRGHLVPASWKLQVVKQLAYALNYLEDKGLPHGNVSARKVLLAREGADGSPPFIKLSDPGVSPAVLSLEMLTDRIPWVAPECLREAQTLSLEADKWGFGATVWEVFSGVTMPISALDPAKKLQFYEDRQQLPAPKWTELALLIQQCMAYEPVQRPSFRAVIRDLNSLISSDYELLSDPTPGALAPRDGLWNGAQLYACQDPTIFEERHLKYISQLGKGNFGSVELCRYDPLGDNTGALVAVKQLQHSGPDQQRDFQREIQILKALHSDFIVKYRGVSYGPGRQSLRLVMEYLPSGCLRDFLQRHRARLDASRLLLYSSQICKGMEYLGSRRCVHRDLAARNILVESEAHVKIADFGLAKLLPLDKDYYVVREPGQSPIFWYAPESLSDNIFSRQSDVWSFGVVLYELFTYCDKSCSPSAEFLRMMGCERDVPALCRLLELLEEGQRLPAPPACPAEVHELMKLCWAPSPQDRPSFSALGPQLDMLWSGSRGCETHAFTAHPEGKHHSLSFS

[6] = Lipophilicity, log D of the compound at 100 uM at pH 7 by HPLC/DAD analysis; assay type: physicochemical; settings: buffer
[7] = target: Non-receptor tyrosine-protein kinase TYK2 (Homo sapiens, UniProt P29597)
Non-receptor tyrosine-protein kinase TYK2, sequence (P29597 whole entry): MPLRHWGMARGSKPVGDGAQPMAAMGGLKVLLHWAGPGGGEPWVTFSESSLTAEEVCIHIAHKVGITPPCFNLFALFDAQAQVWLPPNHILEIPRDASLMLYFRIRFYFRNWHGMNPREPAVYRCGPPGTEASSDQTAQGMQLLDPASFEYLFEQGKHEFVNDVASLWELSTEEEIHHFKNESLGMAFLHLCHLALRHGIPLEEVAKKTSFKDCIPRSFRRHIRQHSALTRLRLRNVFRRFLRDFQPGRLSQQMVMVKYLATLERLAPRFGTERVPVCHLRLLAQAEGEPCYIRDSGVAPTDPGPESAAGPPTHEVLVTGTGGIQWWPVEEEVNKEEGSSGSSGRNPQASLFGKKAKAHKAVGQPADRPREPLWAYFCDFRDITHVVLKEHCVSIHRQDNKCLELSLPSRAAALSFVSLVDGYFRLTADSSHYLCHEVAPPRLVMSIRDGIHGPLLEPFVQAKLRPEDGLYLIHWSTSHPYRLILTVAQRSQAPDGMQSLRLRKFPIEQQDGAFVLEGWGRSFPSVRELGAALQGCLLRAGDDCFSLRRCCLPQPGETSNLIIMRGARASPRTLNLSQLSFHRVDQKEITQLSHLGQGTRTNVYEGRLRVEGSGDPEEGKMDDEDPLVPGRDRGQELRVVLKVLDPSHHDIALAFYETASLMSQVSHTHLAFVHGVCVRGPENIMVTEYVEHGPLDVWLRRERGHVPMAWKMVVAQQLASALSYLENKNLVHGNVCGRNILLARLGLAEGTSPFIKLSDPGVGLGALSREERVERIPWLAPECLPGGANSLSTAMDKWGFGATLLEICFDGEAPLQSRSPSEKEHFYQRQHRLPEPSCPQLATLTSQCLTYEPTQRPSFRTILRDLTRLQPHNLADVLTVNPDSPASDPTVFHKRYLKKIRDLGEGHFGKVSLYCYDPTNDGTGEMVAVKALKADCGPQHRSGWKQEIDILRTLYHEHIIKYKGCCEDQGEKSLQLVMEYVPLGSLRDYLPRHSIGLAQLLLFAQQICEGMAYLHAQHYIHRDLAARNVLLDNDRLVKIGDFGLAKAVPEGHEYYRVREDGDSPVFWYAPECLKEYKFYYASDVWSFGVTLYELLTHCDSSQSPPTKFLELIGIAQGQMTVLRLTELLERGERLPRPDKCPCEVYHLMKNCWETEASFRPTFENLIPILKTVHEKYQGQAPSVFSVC

[8] = target: T2, Tyrosine-protein kinase JAK2; remark: listed apart in the source
Homo sapiens = organism: Homo sapiens; experiment: Selectivity ratio of IC50 for GST-tagged recombinant human JAK2 catalytic domain to IC50 for GST-tagged recombinant human JAK1 catalytic domain
[9] = target: T1, Tyrosine-protein kinase JAK1; remark: listed apart in the source
[10] = Oral bioavailability in rat at 1 mg/kg; assay type: ADME, organism-based; settings: in vivo
[11] = target: Voltage-gated inwardly rectifying potassium channel KCNH2 (Homo sapiens, UniProt Q12809)
Voltage-gated inwardly rectifying potassium channel KCNH2, sequence (Q12809 whole entry): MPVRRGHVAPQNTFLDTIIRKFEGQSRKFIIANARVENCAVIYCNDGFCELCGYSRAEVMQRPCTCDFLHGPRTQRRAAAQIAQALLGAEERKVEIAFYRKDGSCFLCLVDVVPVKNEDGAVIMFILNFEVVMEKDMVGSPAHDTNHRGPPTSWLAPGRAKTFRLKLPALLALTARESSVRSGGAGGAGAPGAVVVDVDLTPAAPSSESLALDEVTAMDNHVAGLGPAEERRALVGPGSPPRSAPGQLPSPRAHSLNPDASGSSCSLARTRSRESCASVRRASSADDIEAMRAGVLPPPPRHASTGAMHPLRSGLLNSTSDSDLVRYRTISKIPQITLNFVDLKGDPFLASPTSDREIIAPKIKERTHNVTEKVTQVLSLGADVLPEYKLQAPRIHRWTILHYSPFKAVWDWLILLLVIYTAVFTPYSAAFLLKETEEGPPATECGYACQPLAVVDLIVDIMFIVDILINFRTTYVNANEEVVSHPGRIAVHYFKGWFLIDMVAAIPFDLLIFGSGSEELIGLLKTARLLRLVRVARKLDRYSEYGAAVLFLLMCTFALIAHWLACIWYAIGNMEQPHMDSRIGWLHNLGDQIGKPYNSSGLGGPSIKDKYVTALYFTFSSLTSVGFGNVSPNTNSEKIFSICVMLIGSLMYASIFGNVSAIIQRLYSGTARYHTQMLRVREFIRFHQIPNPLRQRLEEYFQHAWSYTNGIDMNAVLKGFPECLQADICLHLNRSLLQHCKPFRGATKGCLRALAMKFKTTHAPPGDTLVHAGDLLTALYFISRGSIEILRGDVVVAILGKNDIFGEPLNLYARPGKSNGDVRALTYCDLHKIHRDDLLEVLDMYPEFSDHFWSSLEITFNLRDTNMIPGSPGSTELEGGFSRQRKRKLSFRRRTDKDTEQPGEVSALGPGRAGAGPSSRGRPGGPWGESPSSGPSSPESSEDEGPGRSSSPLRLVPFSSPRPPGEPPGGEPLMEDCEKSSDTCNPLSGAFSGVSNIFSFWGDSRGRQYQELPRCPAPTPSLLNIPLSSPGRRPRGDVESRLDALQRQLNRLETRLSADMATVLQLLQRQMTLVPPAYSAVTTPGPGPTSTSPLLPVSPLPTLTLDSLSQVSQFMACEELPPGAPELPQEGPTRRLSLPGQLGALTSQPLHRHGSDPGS

T1 sequence (P23458 whole entry): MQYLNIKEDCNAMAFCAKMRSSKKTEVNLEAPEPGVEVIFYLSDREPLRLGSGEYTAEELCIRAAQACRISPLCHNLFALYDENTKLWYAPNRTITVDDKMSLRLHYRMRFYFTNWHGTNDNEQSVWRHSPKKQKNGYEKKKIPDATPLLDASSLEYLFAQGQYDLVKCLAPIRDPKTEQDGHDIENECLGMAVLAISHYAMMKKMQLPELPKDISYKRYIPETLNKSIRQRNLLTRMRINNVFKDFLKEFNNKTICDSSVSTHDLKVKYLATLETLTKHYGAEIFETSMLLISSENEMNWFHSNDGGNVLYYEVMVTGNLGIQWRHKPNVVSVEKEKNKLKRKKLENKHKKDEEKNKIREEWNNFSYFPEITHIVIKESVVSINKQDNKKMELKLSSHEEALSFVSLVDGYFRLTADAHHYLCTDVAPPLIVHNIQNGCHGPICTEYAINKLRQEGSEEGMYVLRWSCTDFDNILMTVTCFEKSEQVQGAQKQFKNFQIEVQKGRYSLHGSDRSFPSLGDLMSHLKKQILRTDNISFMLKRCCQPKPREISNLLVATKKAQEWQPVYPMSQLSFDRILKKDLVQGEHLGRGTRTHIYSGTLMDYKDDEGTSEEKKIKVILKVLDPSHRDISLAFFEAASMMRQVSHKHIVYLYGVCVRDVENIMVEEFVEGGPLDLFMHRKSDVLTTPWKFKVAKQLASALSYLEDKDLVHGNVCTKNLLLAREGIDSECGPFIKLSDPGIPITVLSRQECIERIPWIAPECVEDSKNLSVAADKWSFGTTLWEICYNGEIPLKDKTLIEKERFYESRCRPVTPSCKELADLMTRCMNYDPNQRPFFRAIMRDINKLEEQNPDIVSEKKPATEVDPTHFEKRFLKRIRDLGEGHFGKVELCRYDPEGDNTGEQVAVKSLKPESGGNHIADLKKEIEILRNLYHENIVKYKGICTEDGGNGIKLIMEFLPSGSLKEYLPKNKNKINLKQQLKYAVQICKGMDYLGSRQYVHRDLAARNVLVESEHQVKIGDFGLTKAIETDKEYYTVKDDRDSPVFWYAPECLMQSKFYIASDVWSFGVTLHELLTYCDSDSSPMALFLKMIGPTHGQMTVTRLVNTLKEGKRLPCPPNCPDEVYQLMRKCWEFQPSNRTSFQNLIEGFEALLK

| IC50 [1] [nM] | CLint scaled [2] [mL/min/kg] | IC50 [3] [nM] | CLint scaled [4] [mL/min/kg] | IC50 [5] [nM] | logD at 100 µM [6] | IC50 [7] [nM] | IC50 [8] [nM] | IC50 [9] [nM] | bioavailability [10] [%] | Structure (SMILES) | Ratio IC50 (Homo sapiens) | IC50 [11] [nM] |
| --- | --- | --- | --- | --- | --- | --- | --- | --- | --- | --- | --- | --- |
| 0.19 | 15 | 10 | 15 | > 1500 | 1.4 | 8 | 2110 | 24 | – | COc1ccnc2c(F)cc(Nc3nn([C@H]4COCC[C@@H]4C#N)cc3C(N)=O)cc12 | 53 | – |
| 0.4 | 2 | – | 14 | – | 1.89 | 13 | – | 39 | 49 | COc1cc(Nc2nn([C@H]3COCC[C@@H]3C#N)cc2C(N)=O)cc(F)n1 [ATINVICITINIB] | – | – |
| 0.16 | – | 7 | – | 783 | 1.02 | 14 | 1630 | 24 | – | Cc1ncnc2ccc(Nc3nn([C@H]4COCC[C@@H]4C#N)cc3C(N)=O)cc12 | 43 | – |
| – | 24 | 3.2 | < 40 | 391 | 1.87 | 9 | 430 | 19 | 2 | COc1cc(Nc2nn([C@H]3COCC[C@@H]3C#N)cc2C(N)=O)ccc1C#N | 46 | – |
| 0.4 | – | 2.7 | – | 556 | 2.18 | 4 | 261 | 26 | 23 | N#Cc1ccc(Nc2nn([C@H]3COCC[C@@H]3C#N)cc2C(N)=O)cc1Cl | 7 | – |

Further lines, the molecule ahead of its results:

| Structure (SMILES) | IC50 [1] [nM] | CLint scaled [2] [mL/min/kg] | IC50 [3] [nM] | CLint scaled [4] [mL/min/kg] | IC50 [5] [nM] | logD at 100 µM [6] | IC50 [7] [nM] | IC50 [8] [nM] | IC50 [9] [nM] | bioavailability [10] [%] | Ratio IC50 (Homo sapiens) | IC50 [11] [nM] |
| --- | --- | --- | --- | --- | --- | --- | --- | --- | --- | --- | --- | --- |
| N#C[C@H]1C[C@@H](O)CC[C@@H]1n1cc(C(N)=O)c(Nc2ccc(Cl)cc2)n1 | – | – | – | – | – | – | – | – | – | 10 | – | 26000 |
| C[C@@H]1NS(=O)(=O)c2ccc(Nc3nn([C@H]4COCC[C@@H]4C#N)cc3C(N)=O)cc21 | 0.04 | 62 | 2 | 62 | 315 | 3.15 | 1.7 | 224 | 16 | – | 50 | – |
| N#Cc1ccc(Nc2nn([C@H]3COCC[C@@H]3C#N)cc2C(N)=O)cc1C#N | 0.9 | – | 5 | – | 656 | 1.99 | 11 | 1190 | 77 | – | 6 | – |
| N#Cc1ccc(Nc2nn([C@H]3COCC[C@@H]3C#N)cc2C(N)=O)cc1C1CC1 | 1.4 | – | 16 | – | > 1500 | 2.34 | 40 | 744 | 72 | – | 11 | – |
| N#C[C@H]1CCOC[C@@H]1n1cc(C(N)=O)c(Nc2ccc([C@H](O)C(F)(F)F)cc2)n1 | – | < 20 | – | < 40 | 100 | 1.93 | 0.4 | – | – | 9 | – | > 60000 |
| CN(C)c1cc(Nc2nn([C@H]3COCC[C@@H]3C#N)cc2C(N)=O)cc(F)n1 | 0.18 | 4 | 3.4 | 9 | 701 | 2.07 | 13 | 530 | 28 | 4 | 19 | – |
| N#C[C@H]1CCOC[C@@H]1n1cc(C(N)=O)c(Nc2cc(F)c3nccc(Cl)c3c2)n1 | 0.24 | 25 | 7 | 52 | 1010 | 1.81 | 12 | 608 | 14 | 19 | 29 | – |
| CN([C@H]1CC[C@H](n2cc(C(N)=O)c(Nc3ccc(Cl)cc3)n2)[C@@H](C#N)C1)C1(C)COC1 | – | 32 | – | 80 | – | – | – | – | – | – | – | 46000 |
